# Measurements reported in patent US20060257441A1, “Natural essential oil sanitary insect pest repellent and its use” (SUZUKI YUSHI INDUSTRIAL CO., LTD., priority 2005, published 2006).
# Tested on: Croton bug
# Experiment: Physiological activity (Croton bug repellency) test, Test Example 5
# Format: in vivo
# Details: 3% solution in 1:1 hexane/acetone
# Excerpt: A fraction 1 (16.192 g) of copaiba oil was given by silica gel column chromatography (replenishment silica gel: BW-127ZH, 350 g) using 3 liter of hexane as an elution solvent. A fraction 2 (2.868 g) was given by silica gel column chromatography (same as above) using a 4:4:1 mixture of hexane/chloroform/ethyl acetate as an elution solvent. A fraction 3 (1.401 g) was given by fractionating the remnant of the fraction 2 using a 1:1 solvent mixture of ethyl acetate/chloroform 21 as an elution solvent.
# For comparison, the same test was conducted using copaiba oil and β-caryophyllene. The specimen was a 3% solution in the solvent. The solution was given using a 1:1 (volume ratio) mixture of hexane and acetone.
smiles,measurement,setting,value
C=C1CC/C=C(\C)CC[C@@H]2[C@@H]1CC2(C)C [β-caryophyllene],Repellency ratio (%) with time,4 hours,96.2%
same,Repellency ratio (%) with time,24 hours,70.6%
same,Repellency ratio (%) with time,48 hours,52.6%
